Test results from US7495104B2, “Quinoline or quinazoline derivatives inhibiting auto-phosphorylation of fibroblast growth factor receptors” (Kirin Beer Kabushiki Kaisha, priority 2001, dated 2009).
Structures can show the parent of a compound that is named as a salt.

Biological target: Bek (Homo sapiens, UniProt P21802)
Test: Inhibitory activity against Bek-autophosphorylation using ELISA method in OCUM-2MD3 cells
Type: cell-based
Conditions: 1 hr with compound, read-out: IC50 (concentration necessary for inhibiting 50% of Bek-phosphorylation)
Outline: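 OCUM-2MD3 human scirrhous gastric cancer cells in 0.1% FCS were exposed to compound for 1 hr at 37° C, then lysed. Phospho-tyrosine proteins were captured with anti-phosphotyrosine antibody, probed with anti-Bek antibody and peroxidase read-out (A450). Positive control (1000 nM) set 0%, untreated 100%; IC50 from multi-level dilutions.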

Sequence of Bek (P21802 431-767 limits assumed): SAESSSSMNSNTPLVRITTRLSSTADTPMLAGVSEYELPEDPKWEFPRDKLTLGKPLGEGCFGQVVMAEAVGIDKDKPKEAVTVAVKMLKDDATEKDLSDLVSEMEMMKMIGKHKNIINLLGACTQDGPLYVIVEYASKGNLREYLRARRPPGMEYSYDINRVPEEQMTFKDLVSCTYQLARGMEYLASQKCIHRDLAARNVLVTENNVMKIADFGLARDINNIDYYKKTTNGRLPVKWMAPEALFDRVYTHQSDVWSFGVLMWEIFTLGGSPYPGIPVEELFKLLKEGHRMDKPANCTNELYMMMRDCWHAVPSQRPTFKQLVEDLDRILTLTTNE

IC50 | Structure (SMILES)
146 nM | COc1cc2c(Oc3ccc(NC(=O)NCCC(C)(C)C)cc3F)ccnc2cc1OCCN1C(C)CCCC1C (centres unmarked) [Compound 132, 1-(3,3-Dimethyl-butyl)-3-(4-{7-[2-(2,6-dimethyl-piperidin-1-yl)-ethoxy]-6-methoxy-quinolin-4-yloxy}-3-fluoro-phenyl)-urea]
9.2 nM | COc1cc2c(Oc3ccc(NC(=O)NC4CCCC(C)(C)C4)c(F)c3)ccnc2cc1OCCN1CCOCC1 (centres unmarked) [Compound 133, 1-(3,3-Dimethyl-cyclohexyl)-3-{2-fluoro-4-[6-methoxy-7-(2-morpholin-4-yl-ethoxy)-quinolin-4-yloxy]-phenyl}-urea]
11.8 nM | COc1cc2c(Oc3ccc(NC(=O)NC4CCCC(C)(C)C4)c(F)c3)ccnc2cc1OCCN1CC(C)OC(C)C1 (centres unmarked) [Compound 134, 1-(3,3-Dimethyl-cyclohexyl)-3-(4-{7-[2-(2,6-dimethyl-morpholin-4-yl)-ethoxy]-6-methoxy-quinolin-4-yloxy}-2-fluoro-phenyl)-urea]
56.2 nM | COc1cc2nccc(Oc3ccc(NC(=O)NCCC(C)(C)C)c(C)c3)c2cc1OC [Compound 136, 1-[4-(6,7-Dimethoxy-quinolin-4-yloxy)-2-methyl-phenyl]-3-(3,3-dimethyl-butyl)-urea]
66.7 nM | COc1cc2nccc(Oc3ccc(NC(=O)NCCC(C)(C)C)cc3C)c2cc1OC [Compound 137, 1-[4-(6,7-Dimethoxy-quinolin-4-yloxy)-3-methyl-phenyl]-3-(3,3-dimethyl-butyl)-urea]
317 nM | COc1cc(Oc2ccnc3cc(OC)c(OC)cc23)ccc1NC(=O)NCCC(C)(C)C [Compound 138, 1-[4-(6,7-Dimethoxy-quinolin-4-yloxy)-2-methoxy-phenyl]-3-(3,3-dimethyl-butyl)-urea]
1160 nM | COc1cc2nccc(Oc3ccc(NC(=O)NCCC(C)(C)C)cc3OC)c2cc1OC [Compound 139, 1-[4-(6,7-Dimethoxy-quinolin-4-yloxy)-3-methoxy-phenyl]-3-(3,3-dimethyl-butyl)-urea]
172 nM | COc1cc2nccc(Oc3c(Cl)cc(NC(=O)NCCC(C)(C)C)cc3Cl)c2cc1OC [Compound 140, 1-[3,5-Dichloro-4-(6,7-dimethoxy-quinolin-4-yloxy)-phenyl]-3-(3,3-dimethyl-butyl)-urea]
58.6 nM | COc1cc2nccc(Oc3ccc(NC(=O)NCCC(C)(C)C)c(C)c3C)c2cc1OC [Compound 141, 1-[4-(6,7-Dimethoxy-quinolin-4-yloxy)-2,3-dimethyl-phenyl]-3-(3,3-dimethyl-butyl)-urea]
265 nM | COc1cc2nccc(Oc3cc(C)c(NC(=O)NCCC(C)(C)C)cc3C)c2cc1OC [Compound 142, 1-[4-(6,7-Dimethoxy-quinolin-4-yloxy)-2,5-dimethyl-phenyl]-3-(3,3-dimethyl-butyl)-urea]
192 nM | COc1cc2nccc(Oc3ccc(NC(=O)NC(C)(C)CC(C)(C)C)cc3)c2cc1OC [Compound 143, 1-[4-(6,7-Dimethoxy-quinolin-4-yloxy)-phenyl]-3-(1,1,3,3-tetramethyl-butyl)-urea]
202 nM | COc1cc2nccc(Oc3ccc(NC(=O)NC(C)(C)CC(C)(C)C)c(Cl)c3)c2cc1OC [Compound 144, 1-[2-Chloro-4-(6,7-dimethoxy-quinolin-4-yloxy)-phenyl]-3-(1,1,3,3-tetramethyl-butyl)-urea]
654 nM | COc1cc2c(Oc3ccc(NC(=O)NCCC(C)(C)C)cc3)ccnc2cc1OCCCBr [Compound 147, 1-{4-[7-(3-Bromo-propoxy)-6-methoxy-quinolin-4-yloxy]-phenyl}-3-(3,3-dimethyl-butyl)-urea]
218 nM | COc1cc2nccc(Oc3ccc(NC(=O)NCCC(C)(C)CC(C)(C)C)c(F)c3)c2cc1OC [Compound 149, 1-[4-(6,7-Dimethoxy-quinolin-4-yloxy)-2-fluoro-phenyl]-3-(3,3,5,5-tetramethyl-hexyl)-urea]
63.8 nM | COc1cc2nccc(Oc3ccc(NC(=O)NCCC(C)(C)C)c(C(F)(F)F)c3)c2cc1OC [Compound 150, 1-[4-(6,7-Dimethoxy-quinolin-4-yloxy)-2-trifluoromethyl-phenyl]-3-(3,3-dimethyl-butyl)-urea]
221 nM | COc1cc2c(Oc3ccc(NC(=O)NCCC(C)(C)C)cc3)ccnc2cc1OCCCCl [Compound 151, 1-{4-[7-(3-Chloro-propoxy)-6-methoxy-quinolin-4-yloxy]-phenyl}-3-(3,3-dimethyl-butyl)-urea]
25 nM | COc1cc2c(Oc3ccc(NC(=O)NCCC(C)(C)C)cc3)ccnc2cc1OCCCl [Compound 152, 1-{4-[7-(2-Chloro-ethoxy)-6-methoxy-quinolin-4-yloxy]-phenyl}-3-(3,3-dimethyl-butyl)-urea]
24.4 nM | COc1cc2c(Oc3ccc(NC(=O)NCCC(C)(C)C)cc3)ccnc2cc1OCCCN1CCCCC1 [Compound 154, 1-(3,3-Dimethyl-butyl)-3-{4-[6-methoxy-7-(3-piperidin-1-yl-propoxy)-quinolin-4-yloxy]-phenyl}-urea hydrochloride]
28.7 nM | COc1cc2c(Oc3ccc(NC(=O)NCCC(C)(C)C)cc3)ccnc2cc1OCCCN1CCOCC1 [Compound 155, 1-(3,3-Dimethyl-butyl)-3-{4-[6-methoxy-7-(3-morpholin-4-yl-propoxy)-quinolin-4-yloxy]-phenyl}-urea hydrochloride]
19.1 nM | COc1cc2c(Oc3ccc(NC(=O)NCCC(C)(C)C)cc3)ccnc2cc1OCCCN1CCN(C)CC1 [Compound 156, 1-(3,3-Dimethyl-butyl)-3-(4-{6-methoxy-7-[3-(4-methyl-piperazin-1-yl)-propoxy]-quinolin-4-yloxy}-phenyl)-urea hydrochloride]
23.5 nM | COc1cc2c(Oc3ccc(NC(=O)NCCC(C)(C)C)c(Cl)c3)ccnc2cc1OCCCl [Compound 160, 1-{2-Chloro-4-[7-(2-chloro-ethoxy)-6-methoxy-quinolin-4-yloxy]-phenyl}-3-(3,3-dimethyl-butyl)-urea]
189 nM | COc1cc2c(Oc3ccc(NC(=O)NCCC(C)(C)C)c(Cl)c3)ccnc2cc1OCCCCl [Compound 161, 1-{2-Chloro-4-[7-(3-chloro-propoxy)-6-methoxy-quinolin-4-yloxy]-phenyl}-3-(3,3-dimethyl-butyl)-urea]
370 nM | COc1cc2c(Oc3ccc(NC(=O)NCCC(C)(C)C)c(Cl)c3)ccnc2cc1OCc1ccccc1 [Compound 163, 1-[4-(7-Benzyloxy-6-methoxy-quinolin-4-yloxy)-2-chloro-phenyl]-3-(3,3-dimethyl-butyl)-urea]
68.9 nM | COc1cc2c(Oc3ccc(NC(=O)NCCC(C)(C)C)c(Cl)c3)ccnc2cc1OCCN1CCCC1 [Compound 165, 1-{2-Chloro-4-[6-methoxy-7-(2-pyrrolidin-1-yl-ethoxy)-quinolin-4-yloxy]-phenyl}-3-(3,3-dimethyl-butyl)-urea]
39 nM | COc1cc2c(Oc3ccc(NC(=O)NCCC(C)(C)C)c(Cl)c3)ccnc2cc1OCCN(C)C [Compound 166, 1-{2-Chloro-4-[7-(2-dimethylamino-ethoxy)-6-methoxy-quinolin-4-yloxy]-phenyl}-3-(3,3-dimethyl-butyl)-urea]
95 nM | CCN(CC)CCOc1cc2nccc(Oc3ccc(NC(=O)NCCC(C)(C)C)c(Cl)c3)c2cc1OC [Compound 167, 1-{2-Chloro-4-[7-(2-diethylamino-ethoxy)-6-methoxy-quinolin-4-yloxy]-phenyl}-3-(3,3-dimethyl-butyl)-urea]
24 nM | COc1cc2c(Oc3ccc(NC(=O)NCCC(C)(C)C)c(Cl)c3)ccnc2cc1OCC1CCNCC1 [Compound 168, 1-{2-Chloro-4-[6-methoxy-7-(piperidin-4-ylmethoxy)-quinolin-4-yloxy]-phenyl}-3-(3,3-dimethyl-butyl)-urea]
25.2 nM | COc1cc2c(Oc3ccc(NC(=O)NCCC(C)(C)C)c(Cl)c3)ccnc2cc1OCC1CCN(C)CC1 [Compound 169, 1-{2-Chloro-4-[6-methoxy-7-(1-methyl-piperidin-4-ylmethoxy)-quinolin-4-yloxy]-phenyl}-3-(3,3-dimethyl-butyl)-urea]

Structure (SMILES) | IC50
COc1cc2c(Oc3ccc(NC(=O)NCCC(C)(C)C)cc3)ccnc2cc1OCCCCBr [Compound 148, 1-{4-[7-(4-Bromo-butoxy)-6-methoxy-quinolin-4-yloxy]-phenyl}-3-(3,3-dimethyl-butyl)-urea] | 1670 nM
COc1cc2c(Oc3ccc(NC(=O)NCCC(C)(C)C)cc3)ccnc2cc1OCCCCCl [Compound 153, 1-{4-[7-(4-Chloro-butoxy)-6-methoxy-quinolin-4-yloxy]-phenyl}-3-(3,3-dimethyl-butyl)-urea] | 241 nM
COc1cc2c(Oc3ccc(NC(=O)NCCC(C)(C)C)cc3)ccnc2cc1OCCCCN1CCCCC1 [Compound 157, 1-(3,3-Dimethyl-butyl)-3-{4-[6-methoxy-7-(4-piperidin-1-yl-butoxy)-quinolin-4-yloxy]-phenyl}-urea hydrochloride] | 28.5 nM
COc1cc2c(Oc3ccc(NC(=O)NCCC(C)(C)C)cc3)ccnc2cc1OCCCCN1CCOCC1 [Compound 158, 1-(3,3-Dimethyl-butyl)-3-{4-[6-methoxy-7-(4-morpholin-4-yl-butoxy)-quinolin-4-yloxy]-phenyl}-urea hydrochloride] | 32.1 nM
COc1cc2c(Oc3ccc(NC(=O)NCCC(C)(C)C)cc3)ccnc2cc1OCCCCN1CCN(C)CC1 [Compound 159, 1-(3,3-Dimethyl-butyl)-3-(4-{6-methoxy-7-[4-(4-methyl-piperazin-1-yl)-butoxy]-quinolin-4-yloxy}-phenyl)-urea hydrochloride] | 26.2 nM
COc1cc2c(Oc3ccc(NC(=O)NCCC(C)(C)C)c(Cl)c3)ccnc2cc1OCCCCCl [Compound 162, 1-{2-Chloro-4-[7-(4-chloro-butoxy)-6-methoxy-quinolin-4-yloxy]-phenyl}-3-(3,3-dimethyl-butyl)-urea] | 252 nM
COc1cc2c(Oc3ccc(NC(=O)NCCC(C)(C)C)c(Cl)c3)ccnc2cc1OCCCCN1C(=O)c2ccccc2C1=O [Compound 164, 1-(2-Chloro-4-{7-[4-(1,3-dioxo-1,3-dihydro-isoindol-2-yl)-butoxy]-6-methoxy-quinolin-4-yloxy}-phenyl)-3-(3,3-dimethyl-butyl)-urea] | 260 nM
